US20150030542A1, “METHODS FOR MEDICAL IMAGING” (priority 2013, published 2015)

What was measured:
[1] = system: 4T1 breast cancer, TC1 lung cancer, EL4 thymoma, AE17 mesothelioma, AKR esophageal cancer flank tumors; test: NIR labeling of syngeneic flank tumors in mice with systemic ICG (tissue spectrometer); details: 7.5 mg/kg ICG via tail vein, next day, flank tumors ~200 mm^3, five cell lines
Protocol: (§1) Preclinical evidence for NM tumor labeling to detect primary and metastatic tumor deposits. (A) Six cancer cell types were injected into the flank of syngeneic mice. Once established (200 mm3), animals were dosed with 7.5 mg/kg of ICG and imaged. Tumors were harvested, imaged and stained for CD31. Histology images taken at 200× magnification (B) C57bl/6 mice (n=21) were injected with LLC cells in their flanks on Day 0. Starting on Day 12, the animals were euthanized, dosed with 7.5 mg/kg ICG 20 hours earlier and their thoracic cavities opened. Observers determined if the metastatic tumor nodules were visible in the lung. NIR imaging was then used to detect disease that was not visible to the un-assisted human eye.
After the tumors were well established (˜200 mm^3), 7.5 mg/kg of ICG was administered via the tail vein. The next day, a tissue spectrometer was used to semi-quantitate fluorescence from the tumor, surrounding tissue and 12 organs. […] Tumors were harvested, sectioned and assayed for microvessel density to determine if there was a correlation between tumor vascularity and fluorescence (FIG. 1a).
All mice were maintained in pathogen-free conditions and used for experiments at ages 8 week or older. […] Tumor cells for subcutaneous injections were suspended in 100 μL PBS. Tumor volume was calculated using the formula (π×long-axis×short-axis^2)/6. […]

[2] = system: Lewis Lung Cancer (LLC); test: NIR detection of flank tumors and pulmonary metastases in the LLC mouse model
Protocol: as §1
Starting on Day 12, mice (n=9) were injected with 7.5 mg/kg of ICG via tail vein every three days. […] Subsequently, the chest was opened and inspected for NIR emission from pulmonary metastases.
Female C57BL/6 (B6, Thy1.2), BALB/c, athymic Ncr-nu/nu and B6-12931 hybrid mice mice were purchased from Charles River Laboratories and Jackson Laboratories. All mice were maintained in pathogen-free conditions and used for experiments at ages 8 week or older. […] Tumor cells for subcutaneous injections were suspended in 100 μL PBS. Tumor volume was calculated using the formula (π×long-axis×short-axis^2)/6.
Pharmaceutical grade indocyanine green (ICG) was purchased from Akorn Pharmaceuticals (Lake Forest, Ill.). Mice received 7.5 mg/kg ICG via tail vein 20 hours prior to surgery.
A hand-held near infrared spectrometer has been previously described in detail.^18 In brief, a Raman probe detector was incorporated into a cylindrical stainless steel sampling head integrated with a 5 m, two-fiber cable; one for laser excitation and the other for light collection. The sampling head and fiber cable were coupled via an FC connector to a spectrometer. The combined sampling head and spectrometer system has a wavelength range of 800-930 nm with 0.6 nm spectral resolution for near infrared (NIR) fluorescence measurement. […] The signal can be semi-quantitated from 0 to 60,000 arbitrary units (au).

[3] = system: chest and breast tumors; test: Pilot patient study: intraoperative in vivo/in situ NIR imaging of tumor fluorescence
Protocol: Between January and June 2012, 27 consecutive patients who were candidates for surgical removal of chest and breast tumors were enrolled in this study (Table 1). Patients were given a single peripheral vein injection of 5 mg/kg ICG, 24 hours prior to surgery. […] Their ages ranged from 31 to 78 years (median=65 years). […] All enrolled patients were thought to have limited disease, amenable to surgery, and had no metastases (ie. potentially curable). […] Preoperative computed axial and positron emission tomography and/or magnetic resonance imaging predicted no metastatic disease in each case. The median tumor size was 2.0 cm (range 0.6-13.0 cm) on preoperative imaging. Each patient had serum obtained before and 24 hours after ICG injection.
To determine if indocyanine green would be delivered to human tumors, patients undergoing cancer surgery were first imaged in vivo at the onset of the operation. At the time of surgery, the chest was opened and inspected by standard visualization and manual palpation. […] A dual camera head with a brightfield and a NIR output was then used to visualize tumor fluorescence (FIG. 7). […] Attempts to quantitate tumor fluorescence in vivo were not feasible for several reasons including variations in operating room conditions, lack of miniaturized tissue spectrometer with safe laser light source and the inability to control for changes in distance from the specimen to the tip of the spectrometer. […] All quantitative measurements were made later ex vivo once the specimen had been removed. To examine in vivo data on the distribution of ICG, a complete visual examination of the each patients' skin, muscles (lattismus dorsi, serratus anterior, intercostal, diaphragm), pericardium and heart, aorta, normal lung, lymph nodes, adipose tissues, nerves (phrenic, intercostal), and thymus was performed whenever possible.
Thus, prior to closing the body cavity but after the tumor was removed, the chest or breast was inspected visually and by manual palpation for sites of cancer metastases. […] Then, to validate the surgeons' clinical decision, the chest was imaged for NIR fluorescence.
The other application of tumor fluorescence during surgery was to confirm that resection was complete and that no tumor cells were left behind in the surgical field. Thus, once the surgeons had completed each case and decided they had obtained disease clearance at the surgical site, the surgical wound and resection field was imaged.

[4] = system: human tumors; test: Semi-quantification of ICG concentration in tumors (imaging beside ICG standard panel); assay type: in vivo
Protocol: To quantify the concentration of ICG in the resected tissues, normal (control) and cancerous tissues were imaged ex vivo alongside a standard control panel of known concentrations of ICG aliquots mixed with plasma from the same patient. Our system was able to detect concentrations between 0 μg/ml and 2000 μg/ml. […] However, in the tumors, there was a broad range of ICG concentration. In 9 of the 10 specimens, the ICG concentration ranged from 2 to 100 μg/ml (FIG. 3c). No tumor fluoresced above an ICG concentration of 100 μg/ml. However, from a subjective point-of-view, the surgeon was not able to identify any tumors as more or less fluorescent. One cancer (metastatic melanoma) had less than 1 μg/ml of ICG and was not subjectively fluorescent to the surgeon. We also attempted to measure ICG concentration in the tissue by homogenizing punch biopsies and measuring fluorescence in a standard desk fluorometer, however, this approach was unreliable.
To quantify the maximum concentration of ICG in each tumor, 10 patients had their plasma collected at the time of operation. Two mg of ICG was dissolved in 1 ml of plasma and serially diluted 8 times to a final ratio of 1:20,000. 100 μL of stock solution and each dilution was then placed in consecutive wells in a black 96 well plate. When tumors were imaged ex-vivo, this plate was concurrently imaged. These images were then imported into ImageJ® software. Region of interest (ROI) data was taken from each of the 9 wells and from the tumor. The maximum fluorescent signal from the tumor was compared to the wells to determine the highest concentration per tumor. Each tumor was then categorized as have an ICG concentration between given the standards in the known panel.

[5] = in vivo, cited from earlier work
[6] = system: human tumors; test: Ex vivo analysis of tumor fluorescence of resected specimens (NIR imaging, hand-held spectrometer); assay type: in vivo
Description: Following in vivo imaging, the patients then underwent a standard-of-care surgical resection of the tumor. Once removed from the patient, the specimen was examined, opened, biopsied and analyzed ex vivo (FIG. 2a). Every case was photo-documented both by brightfield imaging and NIR imaging. […] Then, the hand held spectrometer was used to semi-quantitate tissue fluorescence. Each tumor had 4 measurements at four perpendicular locations and the center of the tumor (total of 20 measurements/tumor). Mean fluorescence in the human tumors was 53,304±4193 au in 25 out of 27 masses (93%) (FIG. 2b). We conjectured that the center of the tumor might be less fluorescent than the periphery due to necrosis or, conversely, that the center of the tumor might be more fluorescent than the periphery due to increased ICG retention. We found neither to be true. The fluorescence from the tumors was remarkably homogeneous throughout the tumor. We believe this reflects “bleed over” of the fluorescent signal from different areas of the tumor surface. The quality of the image was subjectively better ex vivo than in vivo due to the lack of respiratory motion, light artifact and glare from surrounding tissue retractors. Depending on the different tissues removed from each patient as part of the standard operation, a thorough spectroscopic examination was performed. The average signal diminished from over 50,000 au at the tumor margin to less than 12,000 au within 2 mm of the gross tumor margin. There were some higher signals in areas of atelectatic lung (range 0 to 24,832 au), however, this could easily be distinguished from the tumor by manual palpation. The background signal was measured from the patients' skin, muscles (latissmus dorsi, serratus anterior, intercostal), pericardium, normal lung, lymph nodes, adipose tissues, nerves (intercostal), airway and thymus whenever safely possible (FIG. 2b).
There were 25 cancers and 2 non-cancers (aspergilloma and pulmonary infarct). The two masses that were not fluorescent were a metastatic melanoma (7,342±411 au) and a pulmonary infarct (hematoma, 8,002±554 au). The aspergillus ball, a localized fungus infection, was fluorescent (58,209±1,302 au) likely due to the strong inflammatory reaction surrounding it. […] The pulmonary infarct or hematoma was an old clot secondary to trauma in a person that had been mistaken for a cancer on preoperative imaging. […]

[7] = cited from earlier work
[8] = Semi-quantification of ICG concentration in plasma (fluorometry); assay type: in vivo, human
Protocol: Techniques have been previously described to use fluorometry to quantify concentrations of ICG in plasma. We obtained aliquots of each patient's blood before injection with ICG. These samples were spun down at 1100 RPM for 10 minutes and aliquots of plasma were removed. 2 mg of ICG was dissolved in 1 ml of plasma and serially diluted thirteen times to a concentration of 125 μg per liter. 100 microliters of each of these dilutions were pipetted into a separate wells in a standard black 96 well plate along with one well of 100 microliters of plasma without ICG. At the time of operation, each patient had their plasma obtained and serially diluted six times to a final ratio of 1:1000. Plates were examined using a SpetraMax Fluorometer® with a peak excitation of 805 nm and 830 nm. Each well was scanned 6 times. Readings were export as Microsoft Excel® spread sheets.

[9] = ex vivo spectroscopic examination

CC1(C)C(/C=C/C=C/C=C/C=C2\N(CCCCS(=O)(=O)[O-])c3ccc4ccccc4c3C2(C)C)=[N+](CCCCS(=O)(=O)[O-])c2ccc3ccccc3c21.[Na+] [ICG, indocyanine green]
mean fluorescence from the tumor [1]: 54,238 au
earliest day NIR signal from pulmonary metastases detected ([2]; LLC injected Day 0, 7.5 mg/kg ICG, deposits not visible to un-assisted eye): 15 days
smallest pulmonary metastatic deposit detected ([2]; by histology): 0.4 mm
background fluorescence (mean) ([2]; murine lung): 4290 au
cancer cases in which fluorescence identified unrecognized metastatic tumor deposits ([3]; 2 patients, sites greater than 5 cm from primary tumor, confirmed by frozen biopsy): 8%
cases in which dual camera head could detect tumor fluorescence in vivo ([3]; 16 out of 27 cases, 5 mg/kg ICG 24 hours prior to surgery): 59%
fluorescence of three metastatic sites in right lower pulmonary lobe ([3]; Patient #2): > 48,000 au
smallest metastatic nodule detected, diameter ([3]; Patient #2): 0.4 mm
mean fluorescence of breast mass in the operating room ([3]; Patient #24, infiltrative ductal carcinoma): 52,748 au
in vivo fluorescence of normal tissues (skin, muscles, pericardium, heart, aorta, lung, lymph nodes, adipose, nerves, thymus) ([3]; all cases, visual examination): no tissue fluorescence except the abnormal tumor
deepest tumor that could be detected, distance from the surface of the organ ([3]; in vivo NIR imaging): ~1 cm
Clinical Details: lesion fluorescence ([3]; per case): Benign lesion did not glow.
ICG concentration in tumors ([4]; 9 of the 10 specimens, ex vivo): 2 to 100 µg/mL
ICG concentration in control tissues of normal lung ([4]; ex vivo, 5 mg/kg ICG): undetectable
ICG concentration in metastatic melanoma ([4]; one cancer, not subjectively fluorescent): less than 1 μg/ml
fraction of ICG binding to serum proteins (albumin, lipoproteins) upon injection into the blood [5]: 95%
masses with strong fluorescence, qualitative NIR imaging ([6]; 25 out of 27 masses, ex vivo): 92%
mean fluorescence in the human tumors ([6]; 25 out of 27 masses, ex vivo hand held spectrometer): 53,304±4193 au
fluorescence of non-fluorescent metastatic melanoma ([6]; ex vivo): 7,342±411 au
mean fluorescence of highly fluorescent melanoma ([6]; ex vivo): 57,210 au
mean fluorescence of minimally fluorescent melanoma in a different patient ([6]; ex vivo): 7,332 au
signal in areas of atelectatic lung (range) ([6]; ex vivo): 0 to 24,832 au
average signal at the tumor margin [6, 9]: over 50,000 au
average signal within 2 mm of the gross tumor margin [6, 9]: less than 12,000 au
fluorescence of aspergillus ball ([6]; ex vivo, localized fungus infection): 58,209±1,302 au
fluorescence of pulmonary infarct (hematoma) ([6]; ex vivo, non-cancer): 8,002±554 au
background signal in surrounding tissue in the body cavity ([6]; skin, muscles, pericardium, normal lung, lymph nodes, adipose, nerves, airway, thymus): no evidence of background signal
patients upstaged by intraoperative imaging of fluorescent tumors (2 out of 27 patients): 7.4%
toxicities, adverse events or deaths related to injection of ICG (27 patients, 5 mg/kg ICG): no obvious toxicities, adverse events or deaths
known toxicity of the agent ([7]; Indocyanine Green for Injection USP): no known toxicity
ICG in patient's plasma 24 hours after ICG injection ([8]; SpetraMax Fluorometer): No measurable ICG
ICG in plasma after 20 hours ([8]; patients, 5 mg/kg ICG peripheral vein, fluorometric interrogation of serum): no patient had detectable ICG

CN1C(=CC=C2CCCC(C=CC3=[N+](C)c4ccccc4C3(C)C)=C2Cl)C(C)(C)c2ccccc21.[O-][Cl+3]([O-])([O-])[O-] [IR-786]
clearance after intravenous injection ([5]; iv): rapidly extracted into many tissues in the body, especially the liver, and is inefficiently transported into bile

CN(C)c1ccc2nc3ccc(=[N+](C)C)cc-3sc2c1 [MB, methylene blue]
adverse reactions ([7]; 7.5 mg/kg, e.g. methemoglobinaemia or anaphylaxis): sometimes causes severe adverse reactions
